Activity calls are given as the source filed them. No cut-off for these calls is given here.

The subject of one assay is Influenza A virus. As to the kind of experiment: Potency index, ratio of ribavirin IC50 to test compound IC50 for antiviral activity against Influenza A virus A/WSN/33(H1N1) infected in human 293T cells pretreated for 2 hrs followed by viral infection and measured after 24 hrs by Gaussia luciferase reporter gene assay. In kind it is functional, A/WSN/1933(H1N1), HEK-293T.
Settings: not given
Turning to `CN(C)c1nc(OCC(=O)Nc2ccccc2)c2ccccc2n1`, the “Ratio IC50” value is reported as 4.1.

For a further assay, the system named is Influenza A virus. As to the kind of experiment: Antiviral activity against Influenza A virus A/WSN/33(H1N1) infected in human 293T cells pretreated for 2 hrs followed by viral infection and measured after 24 hrs by Gaussia luciferase reporter gene assay. The assay is classed as functional, organism-based. The conditions noted are these: A/WSN/1933(H1N1), HEK-293T.
For `CN(C)c1nc(OCC(=O)Nc2ccccc2)c2ccccc2n1`, the IC50 – broadly, the concentration that gives 50% inhibition – is 3.7 µM.
For the molecule `CCOC(=O)COc1nc(N2CCCC2)nc2ccccc12`, the IC50 was 16.6 µM.
`O=C(COc1nc(Cl)nc2ccccc12)NCc1ccccc1`: the half-maximal inhibitory concentration (IC50) came out at 26.5 µM.
On the same count and under the same terms, the same measure for `CCOc1ccccc1CNC(=O)COc1nc(N2CCCC2)nc2ccccc12`: 17.7 µM; for `O=C(COc1nc(N2CCc3ccccc3C2)nc2ccccc12)NCc1ccccc1`: 17.7 µM.
Still for that read-out and setting: the same measure for `O=C(NCCOc1nc(N2CCc3ccccc3C2)nc2ccccc12)c1ccccc1`: 4.19 µM; for `COc1ccc(OC(=O)NCCOc2nc(N3CCCC3)nc3ccccc23)cc1`: 55.3 µM.
Same read-out and setting: to `O=C(NCCOc1nc(N2CCCC2)nc2ccccc12)c1cccs1` belongs 18.2 µM; to `O=C(COc1nc(N2CCCC2)nc2ccccc12)Nc1nccs1`, 39.4 µM; to `O=C(NCCOc1nc(N2CCCC2)nc2ccccc12)c1ccc(C(F)(F)F)cc1`, 8.64 µM.
As to `NC(=O)c1ncn([C@@H]2O[C@H](CO)[C@@H](O)[C@H]2O)n1` [RIBAVIRIN], the IC50 was 15.4 µM.
The same measure, in the same setting: to `O=C(NCCOc1nc(Cl)nc2ccccc12)c1ccccc1` belongs 48 µM.
Still for that read-out and setting: to `O=C(O)COc1nc(N2CCCC2)nc2ccccc12` belongs 60.1 µM.

The subject of a further assay is Influenza A virus. The experiment in a line: Antiviral activity against Influenza A virus A/WSN/33(H1N1) infected in human 293T cells assessed as inhibition of viral replication at 10 uM pretreated for 2 hrs followed by viral infection and measured after 24 hrs by Gaussia luciferase reporter gene assay. The assay is classed as functional, organism-based. The conditions noted are these: A/WSN/1933(H1N1), HEK-293T. In general terms: In a reporter assay the amount or activity of a reporter protein is the signal.
As for `O=C(NCCOc1nc(N2CCCC2)nc2ccccc12)c1ccccc1`, the inhibition entry is “Active”.
In the case of `CCOc1ccccc1CNC(=O)COc1nc(N2CCCC2)nc2ccccc12`, the inhibition result was “Active”.
The same measure, in the same setting: to `O=C(NCCOc1nc(N2CCc3ccccc3C2)nc2ccccc12)c1ccccc1` belongs “Active”.
Same read-out and setting: the same measure for `O=C(NCCOc1nc(N2CCCC2)nc2ccccc12)C1CCCCC1`: “inactive”.
Same read-out and setting: to `O=C(COc1nc(N2CCCC2)nc2ccccc12)NC12CC3CC(CC(C3)C1)C2` belongs “inactive”.
Turning to `O=C(NCCOc1nc(N2CCCC2)nc2ccccc12)C1CC1`, the inhibition result was “Active”.
The same measure, in the same setting: the same measure for `NCCOc1nc(N2CCCC2)nc2ccccc12`: “inactive”.
The same measure, in the same setting: to `O=C(COc1nc(N2CCCC2)nc2ccccc12)Nc1nccs1` belongs “Active”; to `O=C(COc1nc(N2CCCC2)nc2ccccc12)NC1CC1`, “inactive”.
On the same count and under the same terms, to `O=C(COc1nc(N2CCCC2)nc2ccccc12)Nc1ccc2ccccc2c1` belongs “inactive”; to `CC(=O)c1ccc(C(=O)NCCOc2nc(N3CCCC3)nc3ccccc23)cc1`, “inactive”.
